# Where a name gives a salt, the structure may show the parent alone.
# B1: SST20-14: mouse white adipose tissue-derived secretory or membrane protein, SEQ ID NO: 2; overexpressed from pCMV-SST20-14 construct (protein, listed as Mus musculus)
# chain: MAGSRGLPLLLLVLQLFLGPVLPVRAPVFGRSDTPTLSPEENEFVEEENQPVLVLSSEEPEPGPATVDCPRDCACSQEGVVDCGGIDLREFPGDLPEHTNHLSLQNNQLEKIYPEELSRLQRLETLNLQNNRLTSRGLPEEAFEHLTSLNYLYLANNKLTLAPRFLPNALISVDFAANYLTKIYGLTFGQKPNLRSVYLHNNKLADAGLPDHMFNGSSNVEILILSSNFLRHVPKHLPPALYKLHLKNNKLEKIPPGAFSELSNLRELYLQNNYLTDEGLDNETFWKLSSLEYLDLSSTNLSRVPAGLPRSLVLLHLEKNAIQSVEADVLTPIRNLEYLLLHSNQLQAKGIHPLAFQGLKKLHTVHLYNNALERVPSGLPRRVRTLMILHNQITGIGREDFATTYFLEELNLSYNRITSPQMHRDAFRKLRLLRSLDLSGNRLQTLPPGLPKNVHVLKVKRNELAALARGALAGMAQLRELYLTGNRLRSRALGPRAWVDLAGLQLLDIAGNQLTEVPEGLPPSLEYLYLQNNKISAVPANAFDSTPNLKGIFLRFNKLAVGSVVESAFRRLKHLQVLDIEGNFEFGNGSKDKDEEEEEEEEEEDEEEETR
# Legend:
# [1] = system: SST8-5; experiment: Expression of SST8-5 mRNA in 3T3-L1 cell by an insulin sensitizer (TaqMan PCR); assay type: cell-based, mouse; details: 10 μM, 72 hours in differentiation medium in the presence of insulin; 36B4 mRNA internal standard
# Description: Analysis of Expression of Novel Secretory or Membrane Protein Gene by an Insulin Sensitizer 3T3-L1 cell was inoculated into 6-well plate at 4×10^5 cells/well of cell number and incubated on DMEM (Invitrogen) medium containing 10% fetal bovine serum (Invitrogen) at 37° C. for 5 days. The medium was exchanged to a differentiation medium [DMEM medium containing 250 nM dexamethasone (Sigma), 0.5 mM 1-methyl-3-isobutyl xanthine (Wako Pure Chemical Industries, Ltd.), 10 μg/ml insulin (Sigma) and 10% fetal bovine serum]. In exchanging the medium to the differentiation medium, pioglitazone hydrochloride (10 μM, Takeda Pharmaceutical Company, Ltd.) which is an insulin sensitizer was added to the medium, and incubated for 72 hours in the presence of insulin. After completing incubation, the medium was washed with PBS (Invitrogen), and the cells were collected. Total RNA was gathered from the collected cells using RNAeasy kit (Qiagen) according to the instructions attached to the kit. Using the gathered total RNA, expression amounts of SST8-5 and mRNA of 36B4 which is used as internal standard were quantified by TaqMan PCR (Applied Biosystems). As a result, the expression amount of SST8-5 increased 2.4-fold by addition of pioglitazone hydrochloride as compared with control (pioglitazone hydrochloride free).
# [2] = system: SST20-14; experiment: Expression of SST20-14 mRNA in 3T3-L1 cell by insulin resistance inducing factor (TaqMan PCR); assay type: cell-based, mouse
# Description: Analysis of Expression of Novel Secretory or Membrane Protein Gene by Insulin Resistance Inducing Factor
# 3T3-L1 cell was inoculated into 6-well plate at 4×10^5 cells/well of cell number and incubated on DMEM (Invitrogen) medium containing 10% fetal bovine serum (Invitrogen) at 37° C. for 5 days. The medium was exchanged to a differentiation medium [DMEM medium containing 250 nM dexamethasone (Sigma), 0.5 mM 1-methyl-3-isobutyl xanthine (Wako Pure Chemical Industries, Ltd.), 10 μg/ml insulin (Sigma) and 10% fetal bovine serum] and further incubated for 24 hours. In exchanging the medium to the differentiation medium, each of TNF-α (Genzyme Techne) at the concentration of 1 nM, 100 pM and 10 pM was added to the medium at the same time. After completing incubation, the medium was washed with PBS (Invitrogen), and the cells were collected. Total RNA was gathered from the collected cells using RNAeasy kit (Qiagen) according to the instructions attached to the kit. Using the gathered total RNA, expression amounts of SST20-14 and mRNA of 36B4 which is used as internal standard were quantified by TaqMan PCR (Applied Biosystems).
# [3] = system: 3T3-L1 cell; experiment: Differentiation of preadipocyte strain 3T3-L1 into mature adipocyte (oil red-O staining of lipid drop accumulation); assay type: cell-based; details: 3T3-L1 cell overexpressing SST20-14 (pCMV-SST20-14, Long form cDNA); differentiation medium 72 hours then 8 days; qualitative, microscopic observation
# Description: Analysis of Action for Differentiation of Preadipocyte Strain 3T3-L1 into Mature Adipocyte
# 3T3-L1 cell was inoculated into 6-well plate at 2×10^5 cells/well of cell number, and incubated on DMEM (Invitrogen) medium containing 10% fetal bovine serum (Invitrogen) at 37° C. for 7 days, incubation solution was suctioned, and the well was washed twice with PBS (Invitrogen), and then 2 ml/well of OPTI-MEM (Invitrogen) was added thereto. OPTI-MEM (100 μl) and FuGENE™6 (10 μl, Roche) were mixed and stood still at room temperature for 5 minutes. Thereto was added […] of construct for expression pCMV-SST20-14 prepared by inserting SST20-14 (Long form) cDNA into EcoRI-HindIII cloning site of pCMV-Tag4A (Sigma) which is an expression plasmid, and the mixed solution was stood still at room temperature for 45 minutes. The solution containing the expression construct was added to the above-mentioned 3T3-L1 cell, and incubated at 37° C. for 6 hours, and then incubated on DMEM medium containing 10% fetal bovine serum at 37° C. for 40 hours. Then, the medium was exchanged to a differentiation medium [DMEM medium containing 250 nM dexamethasone (Sigma), 0.5 mM 1-methyl-3-isobutyl xanthine (Wako Pure Chemical Industries, Ltd.), 10 μg/ml insulin (Sigma) and 10% fetal bovine serum] and incubated for 72 hours. […]
molecule,measurement,setting,value
CCc1ccc(CCOc2ccc(CC3SC(=O)NC3=O)cc2)nc1 (stereo not shown) [pioglitazone hydrochloride],increase of expression amount of SST8-5 as compared with control (pioglitazone hydrochloride free),[1],2.4 fold
TNF-α,reduction of expression amount of SST20-14 as compared with control (TNF-α free),"[2]; 1 nM TNF-α for 24 hours in differentiation medium, 36B4 mRNA internal standard",about 70%
same,change of expression amount of SST20-14 with TNF-α concentration,"[2]; TNF-α 1 nM, 100 pM and 10 pM, 24 hours in differentiation medium",changed depending on added TNF-α concentration
B1,accumulation of lipid drop as compared with control 3T3-L1 cell,[3],reduced to a half or less

# Reference: patent US7833972B2, “Proteins and use thereof” (Takeda Pharmaceutical Company Limited, priority 2002, dated 2010)
